assay: Agilent ZORBAX 300 SB-C18, 150 × 1 mm, 3.5 µm; A: water + 0.01% heptafluorobutyric acid; B: acetonitrile + 0.01% heptafluorobutyric acid; gradient (min/%B) 0/0 100/90; settings: stereoisomer not certain

Compound | LC retention time
CC(=O)NC(NC(C)=O)c1ccncc1 | 5.53 min
CC(=O)c1cccc(NC(=O)Nc2ccc(C)cc2)c1 | 12.9 min
N=c1oc2ccccc2cc1C(=O)Nc1ccc(Oc2ccccc2)cc1 | 13 min
O=C(O)c1n[nH]c(=O)[nH]1 | 1.25 min
Cn1nc(-c2ccccc2)c(-c2ccccc2)c(C(=O)O)c1=O | 11.2 min
CC(=O)Nc1ccc(C(=O)NCc2ccco2)cc1 | 8.96 min
Cc1nc2ccc(NC(=S)N(C)C)cc2nc1C | 8.82 min
O=C1NC2CCCCC2NC1CC(=O)N1CCN(Cc2ccccc2)CC1 (stereo not given) | 7.88 min
CNC(=O)CC1Nc2ccccc2NC1=O (stereo not given) | 7.34 min
O=c1c(C=NCc2ccco2)c(NCc2ccco2)nc2ccccn12 | 11.2 min
COc1ccc(-c2oc3ccccc3c(=O)c2OC)cc1OC | 13.4 min
CN(C)CCCN1c2ccccc2Sc2ccccc21 | 11.3 min
CC(C(=O)O)n1cccc1 (stereo not given) | 8.41 min
Nc1ccc2[nH]c3c(c2c1)CCCC3 | 8.89 min
CC(C)NC(=S)N1CCC(Cc2ccccc2)CC1 | 16 min
Nc1cccc(N)n1 | 6.11 min
CN1CCOC1=O | 3.96 min
CC(COc1ccccc1)NC(C)C(O)c1ccc(O)cc1 (stereo not given) | 9.89 min
Cc1ccc(NC2=NCCCS2)cc1 | 8.91 min
CC(=NCCN1CCNCC1)C1=C(O)CC(C)(C)CC1=O | 8.02 min
CCCCCCCCCCCCCN | 14 min
CN1C(=O)NC(c2ccccc2)C2=C1CN(c1ccc(CC(=O)O)cc1)C2=O (stereo not given) | 9.56 min
CCNc1cccc(C)c1 | 8.38 min
CC(=O)c1ccc(-n2cccc2)cc1 | 13.2 min

Compound | LC retention time
Cc1cc(C)c2c(CC(=O)NN(C)C)coc2c1 | 10.9 min
COc1ccc(CN(CCN(C)C)c2ccccn2)cc1 | 10.1 min
CN(Cc1ccccc1)C(=S)Nc1cccnc1 | 9.65 min
CN1CC=C(C=Cc2ccco2)CC1 | 8.8 min
CCC(N)CC | 7.05 min
CCOC(=O)c1ccc(NC(=O)C(c2ccccc2)c2ccccc2)cc1 | 16.9 min
CCCNC(C)C(=O)Nc1ccccc1C (stereo not given) | 9.17 min
O=C1CCNc2ccc(-c3ccccc3)cc21 | 13.1 min
O=C(NCc1ccc(-n2cccc2)cc1)C(c1ccccc1)c1ccccc1 | 16.6 min
Nc1cccc(C(=O)O)c1N | 10.6 min
COc1cc(CNC(=O)Nc2ccccc2)cc(OC)c1OC | 11.3 min
COC(=O)CC1CN=C(N2CCCCC2)NC1=O (stereo not given) | 7.95 min
Cn1c(N)nc2nc[nH]c2c1=O | 6.36 min
CC(C=Cc1ccccc1)=NNC(=O)C(C)Nc1ccc2ccccc2c1 (stereo not given) | 16.2 min
O=C(c1n[nH]c(=O)c2ccccc12)N1CCN(C(c2ccccc2)c2ccccc2)CC1 | 11.4 min
Nc1ccc(N)cc1 | 4.51 min
O=C1OC(c2c[nH]c3ccccc23)c2ccccc21 (stereo not given) | 12.4 min
CC(c1ccccc1)C(N)C(=O)O (stereo not given) | 7.08 min
O=C(O)c1cc(N2CCCC2=O)cc(N2CCCC2=O)c1 | 8.34 min
CN(C)c1ccc(C=NNC(N)=S)cc1 | 9.84 min
Cc1n[nH]c(=O)nc1NC1CCCCC1 | 8.28 min
O=CN1CCNCC1 | 2.79 min
COc1ccc(C=NCCC2=CCCCC2)cc1OC | 10 min
CCCCCCN1CNC(=S)NC1 | 9.89 min

Compound | LC retention time
CCOC(=O)C(N)CCCN=C(N)N (stereo not given) | 7.25 min
CCOc1cc(NC(C)=O)ccc1C(=O)NN=Cc1cccc(Oc2ccccc2)c1 | 14.3 min
CCCCCCN(C)CCCCCC | 11.9 min
CCn1c2ccccc2c2cc(C=NNC(=O)c3ccc(C)cc3)ccc21 | 15.7 min
Cc1ccccc1CN1CCN(Cc2c[nH]c3ccccc23)CC1 | 10.8 min
Cc1[nH]c2c(C)ccc(C)c2c1CCN | 9.21 min
c1coc(C2=NCCN2)c1 | 6.73 min
Cc1ccc(-n2c(O)c(C=Nc3ccc(O)cc3C)c(=O)[nH]c2=O)cc1 | 10.9 min
CCn1c(C)n[nH]c1=S | 6.98 min
Nc1ccc2cc3ccc(N)cc3nc2c1 | 9.09 min
Cc1ccc(-c2cnc3ccccc3[n+]2C)c(C)c1 | 10.4 min
Cc1ccc2ccc3ccc(C)nc3c2n1 | 8.67 min
Cc1[nH]c2ccccc2c1C=NN=Cc1c(C)[nH]c2ccccc12 | 12 min
O=C(O)C1CCCc2c1[nH]c1ccccc21 (stereo not given) | 12.3 min
CN(C)CCO | 3.24 min
Cn1c(C2CCCCC2)nc2ccccc21 | 9.55 min
Cc1cc(C)c(NC(=O)Nc2ccccc2)c(C)n1 | 8.82 min
OCc1cccnc1-c1ncccc1CO | 6.38 min
Cn1c(O)c(Cc2ccc(OCc3ccccc3)cc2)c(=O)n(C)c1=O | 15 min
CC(=O)Nc1ccc(NC(=O)CCC(=O)O)cc1 | 6.9 min
CN(C)NC1=CC(=O)CC(c2ccccc2)C1 (stereo not given) | 10.4 min
CC1NCCC2(O)CCCCC12 (stereo not given) | 7.09 min
CCOc1ccc(N2C(=O)CC(N(Cc3ccc4c(c3)OCO4)C(C)=O)C2=O)cc1 (stereo not given) | 12.5 min
Cc1[nH]c2ccccc2c1CCNC(N)=O | 9.08 min

Compound | LC retention time
O=C(O)CCn1c2c(c3ccccc31)CCCC2 | 14.3 min
CC[N+](CC)(CC)Cc1ccccc1 | 8.32 min
O=C(NCc1cccnc1)c1cccc2ccccc12 | 9.17 min
Cc1cc(N)c(N)cc1C | 7.98 min
CCNCCN(C)C | 7.47 min
CC(C)NC(C)C | 7.12 min
CCN(CC)CC(=O)Nc1c(C)cc(C)cc1C | 9.28 min
Cc1ccc(C(=O)NCCc2c(C)[nH]c3ccccc23)cc1 | 13.6 min
CC(=NNC(=O)C[n+]1ccccc1)c1ccccc1 | 8.76 min
S=C(Nc1ccccn1)NC1CCCCC1 | 10.7 min
NC(=O)CNc1ccc(C(N)=O)cc1 | 5.59 min
Cc1cc(C=O)c(C)n1C1CCCCC1 | 14.4 min
COC(=O)Cn1c(=O)c(-c2ccccc2)nc2ccccc21 | 14.3 min
CCCNCCN | 7 min
O=C(NCCO)C(=O)NC(c1ccccc1)c1ccccc1 | 11.2 min
COC(=O)c1cccc(C(=O)OC)n1 | 8.45 min
NC1CCCCC1 | 7.63 min
Cc1ccc(-n2c(C)cc(C=CC(=O)O)c2C)cc1 | 14.4 min
CC(C)OC(C)n1cccc1-c1ccccc1 (stereo not given) | 17.7 min
C[N+](C)(C)CC(=O)O | 1.67 min
NC(=O)CCCCCCCCCC(Cc1ccccc1)C(=O)O (stereo not given) | 13.3 min
CCn1cc(CCO)c2ccccc21 | 11.7 min
CCCNC(=O)c1c[nH]c2ccccc12 | 9.96 min

From the RepoRT retention time repository
